Patent publication US8227620B2, “Pharmaceutical compounds” (Neuroscienze Pharmaness S.C. A.R.L., priority 2004, dated 2012)

Columns and labels:
CB1 receptors [1] = target: T1, CB1 receptors (Rattus norvegicus, UniProt P20272); experiment: Hypothermia test in vivo, compound alone (rectal temperature); design: from tissue; host or cells: whole animal (rat), central CB1 receptors of the hypothalamus; details: i.p., doses 0.1, 0.5, 1.0, 3.0, 6.0 mg/kg, versus physiological solution (38° C.)
Method: The test was carried out with the compound of the Example 3.1c. Aqueous samples were used wherein the compound of the Example 3.1c was dispersed in water with three drops of Tween 80. Following the above procedure, treatments were carried out with doses (mg compound/kg of body weight) respectively of 0.1; 0.5; 1.0; 3.0; 6.0.

CB1 receptors [2] = target: T1, CB1 receptors; experiment: Antagonism of WIN 55,212-2 induced hypothermia in vivo; details: for capability to pass the hemato-encephalic barrier: concluded from the hypothermia test; for antagonism of the body temperature reduction induced by WIN 55,212-2: i.p., compound 30 minutes before WIN 55,212-2 (3 mg/kg)
Method: The rectal temperature in the rat was determined by an electronic thermometer inserted at a 2 mm depth. The measurements were carried out on rats acclimated for one hour. The rectal temperature was determined before and after (from 30 to 120 minutes) the i.p. administration of the compound to be tested.
Each test was repeated on ten animals; the reported results are the average of the results obtained with the ten animals.

CB1 receptors [3] = target: T1, CB1 receptors; experiment: Radioreceptor binding, [3H]-CP-55,940 displacement, rat brain membranes; design: from tissue; host or cells: whole animal (rat), central CB1 receptors of the hypothalamus; details: 1 nM [3H]-CP55,940
Description: (§1) The receptorial binding technique allows indeed to establish if and with what affinity and specificity a determined compound binds itself to a particular receptor. To evaluate the affinity of a determined compound towards a particular receptor, a particular preparation of the tissue wherein the receptors are present is used and the tested compound is made to compete with another compound, treated so as to make it radioactive and of which the affinity for the receptor is known. […] The reading of the radioactivity present in the receptor-compound complex allows furthermore to precisely calculate the compound amount bound to the receptor. By this method it is therefore possible to rapidely identify the affinity of a new compound towards a specific receptor and thus to make predictions on its pharmacological activity. By repeating the same experimental scheme it is possible to evaluate the affinity of the compound towards other kinds of receptors and thus establish the specificity degree.
(§2) Food and water were available ad libitum.
(§3) The animals were sacrificed by cervical dislocation, the brain in toto (cerebellum excluded) and the spleen were rapidely dissected and maintained in ice.
(§4) The tissue was homogenized in 15 volumes (weight/volume) of TME buffer (50 mM Tris, 1 mM EDTA e 3 mM MgCl2, pH 7.4) by an Ultra-Turrax and centrifuged for 10 minutes at 1086×g in a centrifuge cooled at 4° C. The resulting supernatant was centrifuged at 45,000×g for 30 min at 4° C. by using a Beckman SW41 rotor and the final pellet was resuspended in 50 volumes of TME.
(§5) The obtained membranes (50-80 μg of proteins) were incubated in the presence of 1 nM di [^3H]-CP55,940 for 1 h at 30° C. in a final volume of 0.5 ml of TME buffer containing 5 mg/ml of bovine serum albumin (BSA). The non specific binding was measured in the presence of CP55,940 at the 1 μM concentration. […]
(§6) The radioactivity present in the filters was measured by a scintillator spectrophotometer (Tricarb 2100, Packard, Meridien, USA). […]

CB2 receptors = target: T2, CB2 receptors (Rattus norvegicus, UniProt Q9QZN9); experiment: Radioreceptor binding, [3H]-CP-55,940 displacement, rat spleen membranes; details: 1 nM [3H]-CP55,940
T2 construct: the brain in toto (cerebellum excluded) and the spleen were rapidely dissected; from tissue; host or cells: rat spleen membranes
T2 sequence (Q9QZN9 1-360): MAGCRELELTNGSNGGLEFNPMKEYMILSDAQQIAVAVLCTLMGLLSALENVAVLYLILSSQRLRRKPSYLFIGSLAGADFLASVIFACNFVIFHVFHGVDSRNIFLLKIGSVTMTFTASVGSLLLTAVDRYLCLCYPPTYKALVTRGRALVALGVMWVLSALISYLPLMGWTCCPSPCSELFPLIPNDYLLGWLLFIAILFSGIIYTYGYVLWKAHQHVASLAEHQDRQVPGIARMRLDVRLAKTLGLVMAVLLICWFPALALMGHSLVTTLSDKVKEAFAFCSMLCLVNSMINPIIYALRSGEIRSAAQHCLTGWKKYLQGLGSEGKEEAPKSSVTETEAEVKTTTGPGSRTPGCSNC
Description: as §1, §2, §3, §4, §5, §6

[4] = WIN 55,212-2 (3 mg/kg) + compound 0.1 mg/kg, 0 min from WIN administration
[5] = WIN 55,212-2 (3 mg/kg) + compound 0.1 mg/kg, 15 min
[6] = WIN 55,212-2 (3 mg/kg) + compound 0.1 mg/kg, 30 min
[7] = WIN 55,212-2 (3 mg/kg) + compound 0.1 mg/kg, 60 min
[8] = WIN 55,212-2 (3 mg/kg) + compound 0.1 mg/kg, 90 min
[9] = WIN 55,212-2 (3 mg/kg) + compound 0.1 mg/kg, 120 min
[10] = WIN 55,212-2 (3 mg/kg) + compound 0.5 mg/kg, 0 min from WIN administration
[11] = WIN 55,212-2 (3 mg/kg) + compound 0.5 mg/kg, 15 min
[12] = WIN 55,212-2 (3 mg/kg) + compound 0.5 mg/kg, 30 min
[13] = WIN 55,212-2 (3 mg/kg) + compound 0.5 mg/kg, 60 min
[14] = WIN 55,212-2 (3 mg/kg) + compound 0.5 mg/kg, 90 min
[15] = WIN 55,212-2 (3 mg/kg) + compound 0.5 mg/kg, 120 min
[16] = WIN 55,212-2 (3 mg/kg) + compound 1.0 mg/kg, 0 min from WIN administration
[17] = WIN 55,212-2 (3 mg/kg) + compound 1.0 mg/kg, 15 min
[18] = WIN 55,212-2 (3 mg/kg) + compound 1.0 mg/kg, 30 min
[19] = WIN 55,212-2 (3 mg/kg) + compound 1.0 mg/kg, 60 min
[20] = WIN 55,212-2 (3 mg/kg) + compound 1.0 mg/kg, 90 min
[21] = WIN 55,212-2 (3 mg/kg) + compound 1.0 mg/kg, 120 min
[22] = WIN 55,212-2 (3 mg/kg) + compound 3.0 mg/kg, 0 min from WIN administration
[23] = WIN 55,212-2 (3 mg/kg) + compound 3.0 mg/kg, 15 min
[24] = WIN 55,212-2 (3 mg/kg) + compound 3.0 mg/kg, 30 min
[25] = WIN 55,212-2 (3 mg/kg) + compound 3.0 mg/kg, 60 min
[26] = WIN 55,212-2 (3 mg/kg) + compound 3.0 mg/kg, 90 min
[27] = WIN 55,212-2 (3 mg/kg) + compound 3.0 mg/kg, 120 min
[28] = WIN 55,212-2 (3 mg/kg) + compound 6.0 mg/kg, 0 min from WIN administration
[29] = WIN 55,212-2 (3 mg/kg) + compound 6.0 mg/kg, 15 min
[30] = WIN 55,212-2 (3 mg/kg) + compound 6.0 mg/kg, 30 min
[31] = WIN 55,212-2 (3 mg/kg) + compound 6.0 mg/kg, 60 min
[32] = WIN 55,212-2 (3 mg/kg) + compound 6.0 mg/kg, 90 min
[33] = WIN 55,212-2 (3 mg/kg) + compound 6.0 mg/kg, 120 min

T1 sequence (P20272 whole entry): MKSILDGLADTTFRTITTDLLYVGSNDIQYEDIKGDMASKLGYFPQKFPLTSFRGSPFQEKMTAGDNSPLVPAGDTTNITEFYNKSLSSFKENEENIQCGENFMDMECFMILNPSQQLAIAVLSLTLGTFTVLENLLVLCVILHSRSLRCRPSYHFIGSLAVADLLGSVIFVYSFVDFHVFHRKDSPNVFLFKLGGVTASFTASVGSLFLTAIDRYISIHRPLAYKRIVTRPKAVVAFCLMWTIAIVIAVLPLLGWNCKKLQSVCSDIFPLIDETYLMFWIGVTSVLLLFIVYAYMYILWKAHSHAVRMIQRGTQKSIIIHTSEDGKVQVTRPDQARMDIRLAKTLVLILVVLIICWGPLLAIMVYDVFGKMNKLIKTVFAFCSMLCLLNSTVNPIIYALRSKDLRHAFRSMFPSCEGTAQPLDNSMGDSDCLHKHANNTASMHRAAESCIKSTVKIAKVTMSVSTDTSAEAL

Row | Compound | effect of the compound as such on body temperature (CB1 receptors [1]) | Body temperature (° C.) (CB1 receptors [2]; [4]) | Body temperature (° C.) (CB1 receptors [2]; [5]) | Body temperature (° C.) (CB1 receptors [2]; [6]) | Body temperature (° C.) (CB1 receptors [2]; [7]) | Body temperature (° C.) (CB1 receptors [2]; [8]) | Body temperature (° C.) (CB1 receptors [2]; [9]) | Body temperature (° C.) (CB1 receptors [2]; [10]) | Body temperature (° C.) (CB1 receptors [2]; [11]) | Body temperature (° C.) (CB1 receptors [2]; [12]) | Body temperature (° C.) (CB1 receptors [2]; [13]) | Body temperature (° C.) (CB1 receptors [2]; [14]) | Body temperature (° C.) (CB1 receptors [2]; [15]) | Body temperature (° C.) (CB1 receptors [2]; [16]) | Body temperature (° C.) (CB1 receptors [2]; [17]) | Body temperature (° C.) (CB1 receptors [2]; [18]) | Body temperature (° C.) (CB1 receptors [2]; [19]) | Body temperature (° C.) (CB1 receptors [2]; [20]) | Body temperature (° C.) (CB1 receptors [2]; [21]) | Body temperature (° C.) (CB1 receptors [2]; [22]) | other results
1 | Cc1c(C(=O)NN2CCCCC2)nn(-c2ccc(Cl)cc2Cl)c1-c1ccc(Cl)s1 [Example 3.1b, N-piperidinyl-5-(5-Chloro-thiophen-2-yl)-1-(2′,4′-dichloro-phenyl)-4-methyl-1H-pyrazol-3-carboxamide] | does not cause as such any effect on the body temperature | 38.5 °C | 35.1 °C | 33.8 °C | 35.3 °C | 36.9 °C | 37.3 °C | 38.1 °C | 35.8 °C | 34.5 °C | 35.7 °C | 36.7 °C | 37.3 °C | 38.3 °C | 36.1 °C | 35.7 °C | 36.8 °C | 37.8 °C | 37.9 °C | 38.4 °C | Body temperature (° C.) (CB1 receptors [2]; [23]): 36.1 °C; Body temperature (° C.) (CB1 receptors [2]; [24]): 35.7 °C; Body temperature (° C.) (CB1 receptors [2]; [25]): 36.8 °C; Body temperature (° C.) (CB1 receptors [2]; [26]): 37.8 °C; Body temperature (° C.) (CB1 receptors [2]; [27]): 37.9 °C; Body temperature (° C.) (CB1 receptors [2]; [28]): 38.6 °C; Body temperature (° C.) (CB1 receptors [2]; [29]): 37.7 °C; Body temperature (° C.) (CB1 receptors [2]; [30]): 37.9 °C; Body temperature (° C.) (CB1 receptors [2]; [31]): 37.9 °C; Body temperature (° C.) (CB1 receptors [2]; [32]): 38.2 °C; Body temperature (° C.) (CB1 receptors [2]; [33]): 37.9 °C; capability to pass the hemato-encephalic barrier (CB1 receptors [2]): capable to pass the hemato-encephalic barrier; CB1 antagonist behaviour in vivo (CB1 receptors [2]; hypothermia test): shows a CB1 antagonist behaviour; antagonism of the body temperature reduction induced by WIN 55,212-2 (CB1 receptors [2]): able to antagonize the effect of WIN 55,212-2; Ki (CB1 receptors [3]): 35 ± 2.5 nM; Ki (CB2 receptors): 476 ± 3 nM
2 | N-pyrrolidinyl-5-(5-Chloro-thiophen-2-yl)-1-(2,4′-dichloro-phenyl)-4-methyl-1H-pyrazol-3-carboxamide [Example 3.1d] | does not cause as such any effect on the body temperature | 38.1 °C | 35.3 °C | 33.8 °C | 35.6 °C | 36.5 °C | 37.2 °C | 38.1 °C | 35.7 °C | 34.4 °C | 35.0 °C | 36.3 °C | 37.2 °C | 37.9 °C | 36.5 °C | 34.7 °C | 35.8 °C | 36.7 °C | 37.1 °C | 38.4 °C | Body temperature (° C.) (CB1 receptors [2]; [23]): 37.0 °C; Body temperature (° C.) (CB1 receptors [2]; [24]): 36.8 °C; Body temperature (° C.) (CB1 receptors [2]; [25]): 37.3 °C; Body temperature (° C.) (CB1 receptors [2]; [26]): 37.7 °C; Body temperature (° C.) (CB1 receptors [2]; [27]): 37.6 °C; Body temperature (° C.) (CB1 receptors [2]; [28]): 37.8 °C; Body temperature (° C.) (CB1 receptors [2]; [29]): 36.9 °C; Body temperature (° C.) (CB1 receptors [2]; [30]): 36.9 °C; Body temperature (° C.) (CB1 receptors [2]; [31]): 37.2 °C; Body temperature (° C.) (CB1 receptors [2]; [32]): 37.8 °C; Body temperature (° C.) (CB1 receptors [2]; [33]): 37.9 °C; capability to pass the hemato-encephalic barrier (CB1 receptors [2]): able to pass the hemato-encephalic barrier; antagonism of the body temperature reduction induced by WIN 55,212-2 (CB1 receptors [2]): able to antagonize the effect of WIN 55,212-2; Ki (CB1 receptors [3]): 63 ± 7.2 nM; Ki (CB2 receptors): 699 ± 21 nM
